Laboratory results as given in paper PMC9845707, “Involvement of three chemosensory proteins in perception of host plant volatiles in the tea green leafhopper, Empoasca onukii” (Frontiers in Physiology, 2023).

What was measured:
[1] = molecular target: EonuCSP4 (Empoasca onukii, UniProt A0A343WGZ9); test: Competitive fluorescence binding assay (1-NPN probe) with recombinant EonuCSP4
Procedure: (§1) N-phenyl-1-naphthylamine (1-NPN) was used as the fluorescent probe. The excitation wavelength in the fluorescence spectrometer was set to 337 nm, which was the results of an optimization that we achieved in lab. The scanning wavelength was 420–600 nm.
(§2) The tested chemicals were dissolved in methanol in preparation for 1 mM stock solution. […] We determined the binding constants of 1-NPN by Scatchard formula. […] The binding affinities of the competitors were evaluated from the corresponding IC50 according to the equation: K i = IC50/(1 + [1-NPN]/K1-NPN).

[2] = molecular target: EonuCSP 6-1 (Empoasca onukii, UniProt A0A343WH12); test: Competitive fluorescence binding assay (1-NPN probe) with recombinant EonuCSP6-1
Procedure: as §1, §2

[3] = molecular target: EonuCSP6-2 (Empoasca onukii, UniProt A0A343WH13); test: Competitive fluorescence binding assay (1-NPN probe) with recombinant EonuCSP6-2
Procedure: as §1, §2

[4] = test system: E. onukii adults; test: Y-tube olfactometer assay (behavioral response); type: in vivo, Empoasca onukii; conditions: 20 μL of 10 μg/μL in methanol, 90 adults per volatile
Procedure: We use a Y-tube olfactometer (1.5 cm in diameter, arms with 8 cm length, and a stem with 18 cm length) to detect the behavioral response of E. onukii to volatiles. The incoming air to the tube was firstly filtered using active carbon and then humidified with the ultrapure water. The air through the arms was blown at a constant flow ([…]). A total of 20 μL tested volatile oil (10 μg/μL in methanol (HPLC)) pipetted onto 1 cm diameter filter paper. This filter paper was placed in the chamber, which connected to one arm of the Y-tube olfactometer. As control, the same filter paper treated with 20 μL of methanol was placed in the chamber connected to another arm of the Y-tube. This experiment was performed in the dark room, which employed a light-emitting diode as the light source. Each adult was introduced into the middle of the stem of the Y-tube and the individuals that made a choice within 8 min were recorded. Individuals moving toward the odorant source for half of the arm distance and stayed for 1 minute were recorded as odorant choice. For each volatile component, 90 adult were used. After 10 insects were tested, the Y-tube olfactometer was washed with 75% ethanol and air-dried, and tested volatiles were placed in another arm for the subsequent tests.

EonuCSP 6-1, sequence (A0A343WH12 entry or part of it): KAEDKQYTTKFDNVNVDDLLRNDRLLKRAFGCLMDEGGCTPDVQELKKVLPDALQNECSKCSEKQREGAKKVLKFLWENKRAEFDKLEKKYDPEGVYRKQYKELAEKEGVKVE
EonuCSP4, sequence (A0A343WGZ9 entry or part of it): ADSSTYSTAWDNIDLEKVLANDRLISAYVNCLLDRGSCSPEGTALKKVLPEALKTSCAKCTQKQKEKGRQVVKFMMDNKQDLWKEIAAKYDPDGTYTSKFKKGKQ
EonuCSP6-2, sequence (A0A343WH13 entry or part of it): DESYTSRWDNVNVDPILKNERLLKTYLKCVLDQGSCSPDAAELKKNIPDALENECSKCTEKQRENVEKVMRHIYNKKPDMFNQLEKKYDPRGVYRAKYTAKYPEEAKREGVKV

c1ccc(Nc2cccc3ccccc23)cc1 [1-NPN, N-phenyl-1-naphthylamine] showed a Kd [1] of 11 µM, a Kd [2] of 12.5 µM and a Kd [3] of 10.2 µM.
With O=Cc1ccccc1 [Benzaldehyde] the IC50 [2] was > 20 µM and the “behavioral response of E. onukii adults (choice versus methanol control)” value [4] was “significant preference”.
With CC/C=C\CCOC(=O)CCCC [Cis-3-Hexenyl n-valerate] the “behavioral response of E. onukii adults (choice versus methanol control)” value [4] was “significant preference”.
